Results reported in US7307166B1, “Oxpurine nucleosides and their congeners, and acyl, derivatives thereof, for improvement of hematopoiesis” (Wellstat Therapeutics Corporation, priority 1987, dated 2007).

Columns and labels:
Balb/C female mice [1] = assay: Hematopoietic recovery after 5-fluorouracil in mice; type: in vivo, mouse
Method: 5-fluorouracil (5-FU) (150 mg/kg, i.p.) was administered to forty Balb/C female mice weighing approximately 20 grams each. Twenty-four hours later and each day thereafter for a total of 8 days, mice were given a 0.4 ml i.p. injection of either physiological saline (controls) or 5′-O-palmitoylguanosine (2.5 μmoles/mouse/day in 0.2% Tween 80). On days 7 and 14 following 5-FU administration half of the animals from each group were bled and then were sacrificed by cervical dislocation. Spleens were removed and weighed, and complete blood cells counts performed.
5-fluorouracil (5-FU) (150 mg/kg, i.p.) was administered to fifty-four Balb/C female mice weighing approximately 20 grams each. Twenty-four hours later and each day thereafter for a total of 7 days, mice were given a 0.4 ml i.p. injection of either physiological saline (controls) or palmitoylguanosine (2.5 μmoles/mouse/day in 0.2% Tween 80). On days 8, 10 and 12 following administration of 5-FU nine animals from each group were bled and then sacrificed by cervical dislocation. Spleens were removed and weighed, and complete blood cell counts performed.
Twenty-eight female Balb/C mice weighing approximately 20 grams each received a 0.4 ml i.p. injection of either physiological saline (controls), or palmitoyldeoxyguanosine (1 μmole/mouse) daily for three days. On the fourth day 5-fluorouracil (5-FU) (150 mg/kg, i.p.) was administered to all 28 of the animals. On days 5, 8 and 11 following 5-FU administration 4 (day 5) or 5 (days 8 and 11) animals from both groups were bled and then sacrificed by cervical dislocation. Spleens were removed and weighed, and complete blood cell counts performed. […]
Sixty female Balb/C mice weighing approximately 20 grams each were distributed into one of five treatment groups and treated once daily for three days by i.p. injection with 3′,5′-O—N^2-tripalmitoyl-2′-deoxyguanosine at a dose of either 1, 5, 10, 25, or 50 mg/kg/treatment in a Tween-DMSO vehicle (0.2% Tween-80 and 7.5% DMSO in physiological saline). Injection volume was 0.4 ml. An additional twelve animals (controls) received vehicle alone on those three days. On the fourth day all seventy-two animals received a single i.p. injection of 5-fluorouracil (5-FU) at a dose of 150 mg/kg. On days 7 and 10 following 5-FU administration six mice from each group were bled and then sacrificed by cervical dislocation. Six untreated mice were also bled and sacrificed to provide data on normal (basal) values. Spleens were removed and weighed, and complete blood cell counts performed.

Balb/C female mice [2] = assay: Hematopoietic recovery after cyclophosphamide in mice (spleen weight, blood cell counts); type: in vivo, mouse
[3] = Ex 47: day 7 after CP, 2.5 μmoles/mouse/day
[4] = Ex 53: day 5 after CP, palmitoylguanosine 2.0, palmitoyldeoxyguanosine 1.0 μmoles/mouse
[5] = Ex 53: day 7 after CP, palmitoylguanosine 1.0 and 2.0, palmitoyldeoxyguanosine 1.0 μmoles/mouse
[6] = Table 9: 7 days after 5-FU, 10 mg/kg pretreatment
[7] = Table 9: 7 days after 5-FU, 25 mg/kg pretreatment
[8] = Table 9: 7 days after 5-FU, 50 mg/kg pretreatment
[9] = Table 10: 10 days after 5-FU, 5 mg/kg pretreatment
[10] = Table 10: 10 days after 5-FU, 10 mg/kg pretreatment
[11] = Table 10: 10 days after 5-FU, 25 mg/kg pretreatment
[12] = Table 10: 10 days after 5-FU, 50 mg/kg pretreatment
[13] = Table 5 (Ex 62): 5 days after CP
[14] = Table 6 (Ex 62): 7 days after CP
[15] = Table 7 (Ex 63): 5 days after CP
[16] = Table 8 (Ex 63): 7 days after CP

In the case of `CCCCCCCCCCCCCCCC(=O)OC[C@H]1O[C@@H](n2cnc3c(=O)[nH]c(N)nc32)[C@H](O)[C@@H]1O`, the spleen weight (Balb/C female mice [1]; Ex 42: day 7 after 5-FU 150 mg/kg, 2.5 μmoles/mouse/day in 0.2% Tween 80 i.p. 8 days) is reported as “slight, but statistically significant, increase”, the Lymphocytes (Balb/C female mice [1]; Ex 42: day 14 after 5-FU) is reported as “significantly higher” and the Neutrophils (Balb/C female mice [1]; Ex 42: day 14 after 5-FU) is reported as “significantly higher”. For the same molecule, the Platelets (Balb/C female mice [1]; Ex 42: day 14 after 5-FU) was “significantly higher”, the spleen weight (Balb/C female mice [1]; Ex 42: day 14 after 5-FU) was “significantly heavier” and the total leukocytes (Balb/C female mice [1]; Ex 42: day 14 after 5-FU) was “significantly higher”. For the same molecule, the number of platelets (Balb/C female mice [1]; Ex 43: day 8 after 5-FU, 2.5 μmoles/mouse/day in 0.2% Tween 80 i.p. 7 days) was “significantly greater”, the number of platelets (Balb/C female mice [1]; Ex 43: day 10 after 5-FU) was “greater numbers” and the spleen size (Balb/C female mice [1]; Ex 43: day 10 after 5-FU) was “significantly larger”. The “number of neutrophils vs control” value (Balb/C female mice [1]; Ex 43: day 12 after 5-FU) was 3 fold, the “spleen weight vs control mice” value (Balb/C female mice [1]; Ex 43: day 12 after 5-FU) was “more than double” and the “white blood cell (WBC) counts” value (Balb/C female mice [2]; Ex 38: day 7 after CP, guanosine 5, acyl derivatives 2.5 μmoles/mouse/day in 0.2% Tween 80) was “greatest effect”. For the same molecule, the spleen weight (Balb/C female mice [2]; Ex 41: day 7 after CP, 5 μmoles/mouse/day in 0.2% Tween 80 on days 1-2, 1-4, 3-5, 4-6 or 1-6, vs saline) was “significantly greater”, the “Total white blood cell (WBC) counts” value (Balb/C female mice [2]; Ex 41: day 7 after CP, 5 μmoles/mouse/day, each timing group, vs saline) was “significantly greater” and the lymphocyte counts (Balb/C female mice [2]; Ex 41: day 7 after CP, treatment on days 1-2 or 1-6) was “elevated”. The total neutrophil counts (Balb/C female mice [2]; Ex 41: day 7 after CP, treatment on days 1-6) was “greatest increase”, the Neutrophils (Balb/C female mice [2]; [3]) was “significantly elevated” and the spleen weight (Balb/C female mice [2]; [3]) was “significantly elevated”. For the same molecule, the “total white blood cells” value (Balb/C female mice [2]; Ex 47: day 7 after CP, 2.5 μmoles/mouse/day in 0.2% Tween 80 i.p. 6 days) was “significantly elevated”, the spleen weight (Balb/C female mice [2]; Ex 50: day 5 after CP, 2 μmoles/mouse) was “significantly elevated” and the total neutrophil counts (Balb/C female mice [2]; Ex 53: day 5 after CP, 1.0 μmoles/mouse) was “significantly increased”. The spleen weight (Balb/C female mice [2]; [4]) was “significantly elevated”, the total neutrophil counts (Balb/C female mice [2]; [4]) was “significantly elevated” and the “white blood cell counts” value (Balb/C female mice [2]; [4]) was “significantly elevated”. For the same molecule, the spleen weight (Balb/C female mice [2]; [5]) was “significantly elevated”, the total neutrophil counts (Balb/C female mice [2]; [5]) was “significantly elevated” and the “white blood cell counts” value (Balb/C female mice [2]; [5]) was “significantly elevated”.
Work on `CCCCCCCCCCCCCCCC(=O)Nc1nc2c(ncn2[C@H]2C[C@H](OC(=O)CCCCCCCCCCCCCCC)[C@@H](COC(=O)CCCCCCCCCCCCCCC)O2)c(=O)[nH]1` [PdG, 3′,5′-O-N^2-tripalmitoyl-2′-deoxyguanosine] yielded a Platelets (Balb/C female mice [1]; Table 9: 7 days after 5-FU, 5 mg/kg pretreatment) of 682 ± 66 K/μl, a Platelets (Balb/C female mice [1]; [6]) of 571 ± 41 K/μl and a Spleen (Balb/C female mice [1]; [6]) of 83 ± 6 mg. The Platelets (Balb/C female mice [1]; [7]) was 587 ± 19 K/μl, the Spleen (Balb/C female mice [1]; [7]) was 93 ± 5 mg and the Platelets (Balb/C female mice [1]; [8]) was 596 ± 43 K/μl. For the same molecule, the Spleen (Balb/C female mice [1]; [8]) was 102 ± 4 mg, the Neutrophils (Balb/C female mice [1]; Table 10: 10 days after 5-FU, 1 mg/kg pretreatment) was 0.4 ± .2 K/μl and the Neutrophils (Balb/C female mice [1]; [9]) was 1.6 ± .4 K/μl. For the same molecule, the Spleen (Balb/C female mice [1]; [9]) was 157 ± 13 mg, the Neutrophils (Balb/C female mice [1]; [10]) was 1.8 ± .4 K/μl and the Spleen (Balb/C female mice [1]; [10]) was 169 ± 24 mg. For the same molecule, the Lymphocytes (Balb/C female mice [1]; [11]) was 8.3 ± .4 K/μl, the Neutrophils (Balb/C female mice [1]; [11]) was 2.9 ± .4 K/μl and the Spleen (Balb/C female mice [1]; [11]) was 293 ± 17 mg. The WBC (Balb/C female mice [1]; [11]) was 11.4 ± .6 K/μl, the Lymphocytes (Balb/C female mice [1]; [12]) was 8.3 ± 1.0 K/μl and the Neutrophils (Balb/C female mice [1]; [12]) was 2.2 ± .5 K/μl. For the same molecule, the Spleen (Balb/C female mice [1]; [12]) was 320 ± 39 mg, the WBC (Balb/C female mice [1]; [12]) was 10.8 ± 1.6 K/μl and the Neutrophils (Balb/C female mice [2]; [13]) was 2.5 ± .3 K/μl. The WBC (Balb/C female mice [2]; [13]) was 4.1 ± .4 K/μl, the Spleen (Balb/C female mice [2]; Table 5 (Ex 62): 5 days after CP 250 mg/kg, triPdG 25 mg/kg/treatment, diPdG molar equivalent, i.p. daily) was 77 ± 7 mg and the Neutrophils (Balb/C female mice [2]; [14]) was 9.9 ± .9 K/μl. For the same molecule, the Platelets (Balb/C female mice [2]; [14]) was 549 ± 25 K/μl, the WBC (Balb/C female mice [2]; [14]) was 13.4 ± .4 K/μl and the Spleen (Balb/C female mice [2]; Table 6 (Ex 62): 7 days after CP, triPdG 25 mg/kg, diPdG molar equivalent, daily 5 days) was 156 ± 12 mg. The Neutrophils (Balb/C female mice [2]; [15]) was 0.6 ± .1 K/μl, the WBC (Balb/C female mice [2]; [15]) was 3.6 ± .4 K/μl and the Spleen (Balb/C female mice [2]; Table 7 (Ex 63): 5 days after CP 250 mg/kg, TriPdG 25 mg/kg/treatment, others molar equivalent, i.p. daily) was 73 ± 3 mg. For the same molecule, the Neutrophils (Balb/C female mice [2]; [16]) was 7.3 ± .3 K/μl, the Platelets (Balb/C female mice [2]; [16]) was 674 ± 37 K/μl and the WBC (Balb/C female mice [2]; [16]) was 3.6 ± .4 K/μl. For the same molecule, the Spleen (Balb/C female mice [2]; Table 8 (Ex 63): 7 days after CP, TriPdG 25 mg/kg, others molar equivalent, daily 5 days) was 198 ± 23 mg.
